Where only a bound is given, the exact number is not on record here.

Test [1] concerns HMLE-Snail and SUM159 cells expressing shControl or shFOXC2. The test is described as follows: Mammosphere assay, cells expressing endogenous FOXC2. In kind it is cell-based, human. The note with it: cells expressing endogenous FOXC2 (shControl) versus shFOXC2, 1000 cells seeded, 7 days. As to the method: (§1) FIGS. 12A and B: Quantification of HMLE-Snail (FIG. 12A) and SUM159 (FIG. 12B) cell viability expressing either shControl or shFOXC2, following culture for 96 hours in increasing concentrations of sunitinib. Cell viability was assessed using an MTS assay. Top lines represent shFOXC2; bottom lines represent shControl. FIG. 12C: In vitro quantification of mammospheres formed by cells described above grown in the presence of sunitinib. Data represents the number of mammospheres formed per 1000 cells seeded after 7 days of culture. For each cell type, the left column represents Vehicle and the right column represents Sunitinib. Error bars indicate SEM. *P<0.05.
Mammosphere cultures were performed as described (Dontu et al., 2003), with the exception that culture medium contained 1% methylcellulose to reduce cell aggregation (Mani et al., 2008). One thousand cells were plated per well into 96-well plates and cultured for 7-10 days, with fresh medium replaced every 3 days. Following incubation, mammospheres were photographed and spheres with a diameter greater than 75 μm were counted. To test the effects of sunitinib, 1000 cells were plated in 96-well low attachment plate in 100 μl mammosphere media. At 24 hours and 96 hours, 100 μl of mammosphere media containing 10 μM sunitinib or vehicle control (DMSO) was added to each well. Spheres were quantified after 7 days.

Test [2] shares this test system. Nature of the test: MTS cell viability assay, cells expressing endogenous FOXC2. In kind it is cell-based, human. The note with it: cells expressing endogenous FOXC2 (shControl) versus shFOXC2, 96 hours, increasing concentrations. As to the method:
as §1
A general note: Tetrazolium dyes change colour on reduction, which living cells bring about.

Test [3] relates to HMLER-FOXC2 cells. The test is described as follows: Cell growth in monolayer cultures with sunitinib, HMLER-FOXC2. In kind it is cell-based, human. The note with it: sunitinib 10 μM (FIG. 7A), method says 2.5 μM, six days. The procedure:
(§2) FIG. 7: Sunitinib inhibits the growth and metastasis of FOXC2-expressing tumors. FIG. 7A: Quantification of HMLER-Vector and HMLER-FOXC2 cell viability in the presence of sunitinib (10 μM) relative to vehicle (DMSO). N=3; error bars indicate SEM. *P<0.05. FIG. 7B: In vitro quantification of mammospheres formed by 1000 HMLER-FOXC2 and HMLER-Snail cells in the presence of sunitinib (10 μM) or DMSO. N=3; error bars indicate SEM. *P<0.05. FIG. 7C: Tumor volume of HMLER-FOXC2 cells injected into the mammary fat pad of NOD/SCID mice and treated with 40 mg/kg of sunitinib or vehicle (N=9) daily for the indicated number of days. Top line represents Vehicle; bottom line represents Sunitinib. […] FIGS. 7E and F: Thirty days following initiation of sunitinib or vehicle treatment, mice were euthanized and the organs, lung (FIG. 7E) and brain (FIG. 7F), were dissected and analyzed for metastatic tumor burden using bioluminescence imaging. The luminescent signal of tumor cells is represented as the total photon flux detected in each organ from individual mice with the bar indicating the average. ***P<0.001, **P<0.05 compared to the vehicle control group.
To determine the effects of sunitinib on cell growth, 2×10^5 cells were plated in a 6-well tissues culture dish. […] On the sixth day of treatment, viable cells per well was quantified using a Beckman-Coulter Vi-Cell Viability Analyzer.

Another test relates to HMLER-Snail cells. Nature of the test: Mammosphere assay, HMLER-Snail. In kind it is cell-based, human. The note with it: 1000 cells, sunitinib 10 μM, 7 days. The procedure:
as §2
(§3) Mammosphere cultures were performed as described (Dontu et al., 2003), with the exception that culture medium contained 1% methylcellulose to reduce cell aggregation (Mani et al., 2008). […] Spheres were quantified after 7 days.

The test system of a further test is HMLER-FOXC2 tumors. The test is described as follows: Orthotopic HMLER-FOXC2 xenograft in the mammary fat-pad. In kind it is in vivo, NOD/SCID mice. The procedure:
FIG. 7: Sunitinib inhibits the growth and metastasis of FOXC2-expressing tumors. FIG. 7A: Quantification of HMLER-Vector and HMLER-FOXC2 cell viability in the presence of sunitinib (10 μM) relative to vehicle (DMSO). N=3; error bars indicate SEM. *P<0.05. FIG. 7B: In vitro quantification of mammospheres formed by 1000 HMLER-FOXC2 and HMLER-Snail cells in the presence of sunitinib (10 μM) or DMSO. N=3; error bars indicate SEM. *P<0.05. FIG. 7C: Tumor volume of HMLER-FOXC2 cells injected into the mammary fat pad of NOD/SCID mice and treated with 40 mg/kg of sunitinib or vehicle (N=9) daily for the indicated number of days. Top line represents Vehicle; bottom line represents Sunitinib. FIG. 7D: Event-free survival of mice with orthotopic HMLER-FOXC2 xenografts treated daily with sunitinib (40 mg/kg, N=7) or vehicle (N=10). Mice were euthanized once tumors reached 1.5 cm^3. Bottom line represents Vehicle; top line represents Sunitinib. FIGS. 7E and F: Thirty days following initiation of sunitinib or vehicle treatment, mice were euthanized and the organs, lung (FIG. 7E) and brain (FIG. 7F), were dissected and analyzed for metastatic tumor burden using bioluminescence imaging. The luminescent signal of tumor cells is represented as the total photon flux detected in each organ from individual mice with the bar indicating the average. ***P<0.001, **P<0.05 compared to the vehicle control group.
To ascertain the effects of sunitinib on HMLER-FOXC2 tumor growth and animal survival, 1×10^6 firefly luciferase-labeled HMLER-FOXC2 cells were injected into the mammary fat-pad of NOD/SCID mice as described above. After 24 hours, the mice were treated 5 days a week with 40 mg/kg sunitinib or vehicle (n=9) by oral gavage. Animals were sacrificed once the tumors reached 1.5 cm^3 or 30 days following injection and the dissected organs were immediately analyzed for luciferase activity.

In test [4] the test system is HMLER-FOXC2 cells. The test is described as follows: Mammosphere assay, HMLER-FOXC2. In kind it is cell-based, human. The note with it: HMLER-FOXC2, 1000 cells, sunitinib 10 μM, 7 days. The procedure:
as §2, §3

Turning to `CCN(CC)CCNC(=O)c1c(C)[nH]c(/C=C2\C(=O)Nc3ccc(F)cc32)c1C` [sunitinib], the “sensitivity to sunitinib by reduction in mammosphere formation” value in test [1] was “increased sensitivity”. Besides, the “sensitivity to sunitinib by MTS assay” value in test [2] is listed as “increased sensitivity”. Besides, the “cell growth (cell viability relative to vehicle DMSO)” value in the test on HMLER-FOXC2 cells [3] was “specifically inhibit the cell growth”. The “decrease of mammosphere formation compared to vehicle (DMSO) treated cells” value is above 20 fold in the test with HMLER-Snail cells and above 8 fold in the test with HMLER-FOXC2 cells [4]. In the test with HMLER-FOXC2 tumors (40 mg/kg sunitinib by oral gavage versus vehicle, NOD/SCID mice), the “primary tumor growth (tumor volume)” value was “reduced primary tumor growth”. Moreover, the “metastatic burden in brain (photon counts, bioluminescence)” value in the test with HMLER-FOXC2 tumors (40 mg/kg sunitinib oral versus vehicle, thirty days after start of treatment, dissected brain) was “significantly reduced metastatic burden”. In addition, the “metastatic burden in lungs (photon counts, bioluminescence)” value in the test with HMLER-FOXC2 tumors (40 mg/kg sunitinib oral versus vehicle, thirty days after start of treatment, dissected lungs) is given as “significantly reduced metastatic burden”. In addition, the event-free survival entry in the test with HMLER-FOXC2 tumors (40 mg/kg sunitinib oral versus vehicle, mice euthanized once tumors reached 1.5 cm^3) is reported as “extended event-free survival”.

The values are drawn from patent publication US20140275201A1, “IDENTIFICATION OF CANCER STEM CELL MARKERS AND USE OF […] TO TREAT CANCER” (BOARD OF REGENTS, THE UNIVERSITY OF TEXAS SYSTEM, priority 2013, published 2014).
